From PubChem BioAssay (NCI)
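Each compound was tested at five concentrations against cells in 96-well plates for 48 hours. GI50 marks 50% less growth. Definition used: TGI = concentration required for complete inhibition of growth.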

Key:
Test in all cases: DTP human tumour cell line panel, 48 h
HCT-15 colon = tested on: HCT-15 colon
KM12 colon = tested on: KM12 colon
A549 NSCLC = tested on: A549 NSCLC
NCI-H226 lung = tested on: NCI-H226 lung
OVCAR-8 ovarian = tested on: OVCAR-8 ovarian
HS 578T breast = tested on: HS 578T breast
IGROV1 ovarian = tested on: IGROV1 ovarian
UACC-257 melanoma = tested on: UACC-257 melanoma
MDA-MB-435 = tested on: MDA-MB-435
BT-549 breast = tested on: BT-549 breast
RPMI-8226 leukemia = tested on: RPMI-8226 leukemia
T-47D breast = tested on: T-47D breast
COLO 205 colon = tested on: COLO 205 colon
A498 renal = tested on: A498 renal
UACC-62 melanoma = tested on: UACC-62 melanoma
OVCAR-5 ovarian = tested on: OVCAR-5 ovarian
ACHN renal = tested on: ACHN renal
PC-3 prostate = tested on: PC-3 prostate
SK-MEL-28 melanoma = tested on: SK-MEL-28 melanoma
NCI-H522 lung = tested on: NCI-H522 lung
SK-OV-3 ovarian = tested on: SK-OV-3 ovarian
SNB-75 CNS = tested on: SNB-75 CNS
LOX IMVI melanoma = tested on: LOX IMVI melanoma
MDA-MB-468 breast = tested on: MDA-MB-468 breast
SN12C renal = tested on: SN12C renal
SNB-19 CNS = tested on: SNB-19 CNS
NCI-H23 lung = tested on: NCI-H23 lung
RXF 393 renal = tested on: RXF 393 renal
HT29 colon = tested on: HT29 colon
SF-539 CNS = tested on: SF-539 CNS
HL-60(TB) leukemia = tested on: HL-60(TB) leukemia
CAKI-1 renal = tested on: CAKI-1 renal
SK-MEL-2 melanoma = tested on: SK-MEL-2 melanoma
UO-31 renal = tested on: UO-31 renal
SW-620 colon = tested on: SW-620 colon
K-562 leukemia = tested on: K-562 leukemia
HCC-2998 colon = tested on: HCC-2998 colon
TK-10 renal = tested on: TK-10 renal
DU-145 prostate = tested on: DU-145 prostate
SR leukemia = tested on: SR leukemia
MCF7 breast = tested on: MCF7 breast
EKVX NSCLC = tested on: EKVX NSCLC
SF-268 CNS = tested on: SF-268 CNS
MOLT-4 leukemia = tested on: MOLT-4 leukemia
786-0 renal = tested on: 786-0 renal
U251 CNS = tested on: U251 CNS
OVCAR-3 ovarian = tested on: OVCAR-3 ovarian
M14 melanoma = tested on: M14 melanoma
HOP-92 NSCLC = tested on: HOP-92 NSCLC
CCRF-CEM leukemia = tested on: CCRF-CEM leukemia
HCT-116 colon = tested on: HCT-116 colon
MALME-3M melanoma = tested on: MALME-3M melanoma
MDA-MB-231 breast = tested on: MDA-MB-231 breast
NCI/ADR-RES ovarian = tested on: NCI/ADR-RES ovarian
NCI-H460 lung = tested on: NCI-H460 lung
SF-295 CNS = tested on: SF-295 CNS
HOP-62 NSCLC = tested on: HOP-62 NSCLC
OVCAR-4 ovarian = tested on: OVCAR-4 ovarian
SK-MEL-5 melanoma = tested on: SK-MEL-5 melanoma

For `O=Cc1cncc(-c2ccc3ncnc(N4CCc5cc(F)c(Cl)cc54)c3c2)c1`, which GI50 (HCT-15 colon) is on record?
The GI50 was 3.41 µM.

What about the TGI (HCT-15 colon) of the same molecule?
Its TGI is 17.2 µM.

And the GI50 (KM12 colon)?
Its GI50 is 15.4 µM.

What about the TGI (KM12 colon) of the same molecule?
The TGI was 49.3 µM.

And the GI50 (A549 NSCLC)?
Its GI50 is 2.64 µM.

And the TGI (A549 NSCLC)?
Its TGI is 17.1 µM.

And the GI50 (NCI-H226 lung)?
The GI50 was 5.1 µM.

And the TGI (NCI-H226 lung)?
The TGI was 23.9 µM.

What about the GI50 (OVCAR-8 ovarian) of the same molecule?
The GI50 was 4.71 µM.

What about the TGI (OVCAR-8 ovarian) of the same molecule?
Its TGI is 46.3 µM.

What about the GI50 (HS 578T breast) of the same molecule?
Its GI50 is 1.74 µM.

And the TGI (HS 578T breast)?
The TGI was 8.98 µM.

What about the GI50 (IGROV1 ovarian) of the same molecule?
The GI50 was 1.05 µM.

What about the TGI (IGROV1 ovarian) of the same molecule?
Its TGI is 4.78 µM.

And the GI50 (UACC-257 melanoma)?
The GI50 was 8.62 µM.

And the TGI (UACC-257 melanoma)?
Its TGI is 25.9 µM.

What about the GI50 (MDA-MB-435) of the same molecule?
The GI50 was 6.39 µM.

What about the TGI (MDA-MB-435) of the same molecule?
Its TGI is 25.1 µM.

And the GI50 (BT-549 breast)?
The GI50 was 1.77 µM.

And the TGI (BT-549 breast)?
The TGI was 12.5 µM.

What about the GI50 (RPMI-8226 leukemia) of the same molecule?
The GI50 was 3.14 µM.

And the TGI (RPMI-8226 leukemia)?
Its TGI is 22.6 µM.

What about the GI50 (T-47D breast) of the same molecule?
Its GI50 is 1.31 µM.

And the TGI (T-47D breast)?
The TGI was 11.1 µM.

And the GI50 (COLO 205 colon)?
The GI50 was 15.6 µM.

And the TGI (COLO 205 colon)?
Its TGI is 32.6 µM.

What about the GI50 (A498 renal) of the same molecule?
The GI50 was 0.898 µM.

What about the TGI (A498 renal) of the same molecule?
The TGI was 6.88 µM.

What about the GI50 (UACC-62 melanoma) of the same molecule?
Its GI50 is 2.02 µM.

What about the TGI (UACC-62 melanoma) of the same molecule?
Its TGI is 12.4 µM.

And the GI50 (OVCAR-5 ovarian)?
The GI50 was 4.01 µM.

What about the TGI (OVCAR-5 ovarian) of the same molecule?
Its TGI is 22.1 µM.

And the GI50 (ACHN renal)?
The GI50 was 1.02 µM.

What about the TGI (ACHN renal) of the same molecule?
The TGI was 13.5 µM.

And the GI50 (PC-3 prostate)?
Its GI50 is 2.84 µM.

And the TGI (PC-3 prostate)?
Its TGI is 18.2 µM.

What about the GI50 (SK-MEL-28 melanoma) of the same molecule?
The GI50 was 7.95 µM.

And the TGI (SK-MEL-28 melanoma)?
The TGI was 25.2 µM.

And the GI50 (NCI-H522 lung)?
The GI50 was 11 µM.

What about the TGI (NCI-H522 lung) of the same molecule?
The TGI was 30.6 µM.

What about the GI50 (SK-OV-3 ovarian) of the same molecule?
Its GI50 is 2.66 µM.

What about the TGI (SK-OV-3 ovarian) of the same molecule?
The TGI was 9.59 µM.

What about the GI50 (SNB-75 CNS) of the same molecule?
Its GI50 is 1 µM.

And the TGI (SNB-75 CNS)?
The TGI was 10 µM.

And the GI50 (LOX IMVI melanoma)?
The GI50 was 3.68 µM.

What about the TGI (LOX IMVI melanoma) of the same molecule?
The TGI was 17.4 µM.

What about the GI50 (MDA-MB-468 breast) of the same molecule?
Its GI50 is 1.22 µM.

And the TGI (MDA-MB-468 breast)?
The TGI was 3.21 µM.

What about the GI50 (SN12C renal) of the same molecule?
Its GI50 is 2.71 µM.

What about the TGI (SN12C renal) of the same molecule?
The TGI was 21.2 µM.

And the GI50 (SNB-19 CNS)?
Its GI50 is 4.73 µM.

And the TGI (SNB-19 CNS)?
Its TGI is 35 µM.

And the GI50 (NCI-H23 lung)?
The GI50 was 10.2 µM.

And the TGI (NCI-H23 lung)?
Its TGI is 27.1 µM.

And the GI50 (RXF 393 renal)?
Its GI50 is 1.23 µM.

What about the TGI (RXF 393 renal) of the same molecule?
Its TGI is 4.32 µM.

What about the GI50 (HT29 colon) of the same molecule?
The GI50 was 11.1 µM.

And the TGI (HT29 colon)?
Its TGI is 34.8 µM.

What about the GI50 (SF-539 CNS) of the same molecule?
Its GI50 is 3.75 µM.

What about the TGI (SF-539 CNS) of the same molecule?
Its TGI is 18.7 µM.

What about the GI50 (HL-60(TB) leukemia) of the same molecule?
The GI50 was 2.22 µM.

And the TGI (HL-60(TB) leukemia)?
The TGI was 22.1 µM.

What about the GI50 (CAKI-1 renal) of the same molecule?
Its GI50 is 1.31 µM.

What about the TGI (CAKI-1 renal) of the same molecule?
Its TGI is 16 µM.

What about the GI50 (SK-MEL-2 melanoma) of the same molecule?
Its GI50 is 12.1 µM.

And the TGI (SK-MEL-2 melanoma)?
Its TGI is 28.5 µM.

What about the GI50 (UO-31 renal) of the same molecule?
Its GI50 is 0.523 µM.

And the TGI (UO-31 renal)?
Its TGI is 13.8 µM.

What about the GI50 (SW-620 colon) of the same molecule?
The GI50 was 10.3 µM.

And the TGI (SW-620 colon)?
The TGI was 26.1 µM.

What about the GI50 (K-562 leukemia) of the same molecule?
Its GI50 is 7.74 µM.

And the TGI (K-562 leukemia)?
The TGI was greater than 100 µM.

And the GI50 (HCC-2998 colon)?
Its GI50 is 9.79 µM.

What about the TGI (HCC-2998 colon) of the same molecule?
Its TGI is 23.1 µM.

And the GI50 (TK-10 renal)?
The GI50 was 1.32 µM.

What about the TGI (TK-10 renal) of the same molecule?
The TGI was 10.5 µM.

And the GI50 (DU-145 prostate)?
Its GI50 is 3.93 µM.

What about the TGI (DU-145 prostate) of the same molecule?
Its TGI is greater than 100 µM.

And the GI50 (SR leukemia)?
The GI50 was 3.77 µM.

What about the TGI (SR leukemia) of the same molecule?
Its TGI is 23.7 µM.

And the GI50 (MCF7 breast)?
Its GI50 is 1.64 µM.

And the TGI (MCF7 breast)?
The TGI was 7.38 µM.

And the GI50 (EKVX NSCLC)?
The GI50 was 1.25 µM.

What about the TGI (EKVX NSCLC) of the same molecule?
Its TGI is 8.09 µM.

And the GI50 (SF-268 CNS)?
Its GI50 is 5.14 µM.

What about the TGI (SF-268 CNS) of the same molecule?
Its TGI is greater than 100 µM.

And the GI50 (MOLT-4 leukemia)?
The GI50 was 2.45 µM.

What about the TGI (MOLT-4 leukemia) of the same molecule?
Its TGI is 7.06 µM.

And the GI50 (786-0 renal)?
The GI50 was 2.11 µM.

And the TGI (786-0 renal)?
The TGI was 16.1 µM.

What about the GI50 (U251 CNS) of the same molecule?
The GI50 was 11.1 µM.

What about the TGI (U251 CNS) of the same molecule?
The TGI was 34 µM.

What about the GI50 (OVCAR-3 ovarian) of the same molecule?
Its GI50 is 2.26 µM.

And the TGI (OVCAR-3 ovarian)?
The TGI was 34.9 µM.

What about the GI50 (M14 melanoma) of the same molecule?
Its GI50 is 5.51 µM.

What about the TGI (M14 melanoma) of the same molecule?
The TGI was 20.9 µM.

What about the GI50 (HOP-92 NSCLC) of the same molecule?
Its GI50 is 1.86 µM.

What about the TGI (HOP-92 NSCLC) of the same molecule?
The TGI was 11.9 µM.

And the GI50 (CCRF-CEM leukemia)?
Its GI50 is 3.08 µM.

And the TGI (CCRF-CEM leukemia)?
Its TGI is 14.9 µM.

What about the GI50 (HCT-116 colon) of the same molecule?
Its GI50 is 5.41 µM.

What about the TGI (HCT-116 colon) of the same molecule?
The TGI was 20.4 µM.

What about the GI50 (MALME-3M melanoma) of the same molecule?
Its GI50 is 2.72 µM.

And the TGI (MALME-3M melanoma)?
The TGI was 18.6 µM.

What about the GI50 (MDA-MB-231 breast) of the same molecule?
Its GI50 is 4.85 µM.

And the TGI (MDA-MB-231 breast)?
Its TGI is 25.3 µM.

And the GI50 (NCI/ADR-RES ovarian)?
Its GI50 is 5.31 µM.

And the TGI (NCI/ADR-RES ovarian)?
Its TGI is 36.6 µM.

What about the GI50 (NCI-H460 lung) of the same molecule?
Its GI50 is 4.49 µM.

And the TGI (NCI-H460 lung)?
Its TGI is 20.2 µM.

What about the GI50 (SF-295 CNS) of the same molecule?
The GI50 was 3.98 µM.

And the TGI (SF-295 CNS)?
Its TGI is 21.5 µM.

What about the GI50 (HOP-62 NSCLC) of the same molecule?
The GI50 was 2.47 µM.

And the TGI (HOP-62 NSCLC)?
Its TGI is 26 µM.

What about the GI50 (OVCAR-4 ovarian) of the same molecule?
Its GI50 is 5.18 µM.

And the TGI (OVCAR-4 ovarian)?
The TGI was 41.1 µM.

What about the GI50 (SK-MEL-5 melanoma) of the same molecule?
Its GI50 is 4.38 µM.

What about the TGI (SK-MEL-5 melanoma) of the same molecule?
The TGI was 17.6 µM.
